Experimental data taken from patent EP2396329B1, “COMPOUNDS FOR THE TREATMENT OF HEPATITIS C” (priority 2009, dated 2010).
Read-outs that look alike come from different tables or passages of the source.

Columns and labels:
HCV replicon = HCV replicon assay (FRET or luciferase readout); format: cell-based
Excerpt: FRET Assay Preparation. To perform the HCV FRET screening assay, 96-well cell culture plates were used. The FRET peptide (Anaspec, Inc.) (Taliani et al., Anal. Biochem. 1996, 240, 60-67) contains a fluorescence donor, EDANS, near one end of the peptide and an acceptor, DABCYL, near the other end. The fluorescence of the peptide is quenched by […] resonance energy transfer (RET) between the donor and the acceptor, but as the NS3 protease cleaves the peptide the products are released from RET quenching and the fluorescence of the donor becomes apparent. The assay reagent was made as follows: 5X cell Luciferase cell culture lysis reagent from Promega (#E153A) diluted to 1X with dH2O, NaCl added to 150 mM final, the FRET peptide diluted to 20 µM final from a 2 mM stock.
To prepare plates, HCV replicon cells, with or without a Renilla luciferase reporter gene, were trypsinized and placed into each well of a 96-well plate with titrated test compounds added in columns 3 through 12; columns 1 and 2 contained a control compound (HCV protease inhibitor), and the bottom row contained cells without compound. The plates were then placed in a CO2 incubator at 37 °C.
Assays. Subsequent to addition of the test compounds described above (FRET Assay Preparation), at various times the plate was removed and Alamar blue solution (Trek Diagnostics, #00-100) was added per well as a measure of cellular toxicity. After reading in a Cytoflour 4000 instrument (PE Biosystems), plates were rinsed with PBS and then used for FRET assay by the addition of 30 ul of the FRET peptide assay reagent described above (FRET Assay Preparation) per well. The plate was then placed into the Cytoflour 4000 instrument which had been set to 340 excite/490 emission, automatic mode for 20 cycles and the plate read in a kinetic mode. Typically, the signal to noise using an endpoint analysis after the reads was at least three-fold. Alternatively, after Alamar blue reading, plates were rinsed with PBS, 50 ul of DMEM (high glucose) without phenol red was added and plates were then used for luciferase assay using the Promega Dual-Glo Luciferase Assay System.
Compound analysis was determined by quantification of the relative HCV replicon inhibition and the relative cytotoxicity values. To calculate cytoxicity values, the average Alamar Blue fluorescence signals from the control wells were set as 100% non-toxic. The individual signals in each of the compound test wells were then divided by the average control signal and multiplied by 100% to determine […]. To calculate the HCV replicon inhibition values, an average background value was obtained from the two wells containing the highest amount of HCV protease inhibitor at the end of the assay period. These numbers were similar to those obtained from naïve Huh-7 cells.
The background numbers were then subtracted from the average signal obtained from the control wells and this number was used as 100% activity. The individual signals in each of the compound test wells were then divided by the averaged control values after background subtraction and multiplied by 100% to determine percent activity. EC50 values for a protease inhibitor titration were calculated as the concentration which caused a 50% reduction in FRET or luciferase activity. The two numbers generated for the compound plate, percent cytoxicity and percent activity were used to determine compounds of interest for further analysis.

HCV NS5B = molecular target: T1, HCV NS5B (Hepatitis C virus genotype 1b, UniProt Q9WMX2); assay: HCV NS5B RdRp enzyme assay (standard or modified); format: biochemical
T1 construct: The protein was expressed with an 18 amino acid C-terminal truncation to enhance the solubility; made in house; host or cells: E. coli BL21(DE3)
Experimental: HCV NS5B RdRp cloning, expression, and purification. The cDNA encoding the NS5B protein of HCV, genotype 1b, was cloned into the pET21a expression vector. The protein was expressed with an 18 amino acid C-terminal truncation to enhance the solubility. The E. coli competent cell line BL21(DE3) was used for expression of the protein. Cultures were grown at 37 °C for ~ 4 hours until the cultures reached an optical density of 2.0 at 600 nm. The cultures were cooled to 20 °C and induced with I mM IPTG. Fresh ampicillin was added to a final concentration of 50 µg/ml and the cells were grown overnight at 20 °C.
Cell pellets (3L) were lysed for purification to yield 15-24 mgs of purified NS5B. The lysis buffer consisted of 20 mM Tris-HCl, pH 7.4, 500 mM NaCl, 0.5% triton X-100, 1 mM DTT, 1mM EDTA, 20% glycerol, 0.5 mg/ml lysozyme, 10 mM MgCl2, 15 ug/ml deoxyribonuclease I, and Complete TM protease inhibitor tablets (Roche). After addition of the lysis buffer, frozen cell pellets were resuspended using a tissue homogenizer. To reduce the viscosity of the sample, aliquots of the lysate were sonicated on ice using a microtip attached to a Branson sonicator. The sonicated lysate was centrifuged at 100,000 x g for 1hr at 4 °C and filtered through a 0.2 µm filter unit (Corning).
The protein was purified using three sequential chromatography steps: Heparin sepharose CL-6B, polyU sepharose 4B, and Hitrap SP sepharose (Pharmacia). The chromatography buffers were identical to the lysis buffer but contained no lysozyme, deoxyribonuclease I, MgCl2 or protease inhibitor and the NaCl concentration of the buffer was adjusted according to the requirements for charging the protein onto the column. Each column was eluted with a NaCl gradient which varied in length from 5-50 column volumes depending on the column type. After the final chromatography step, the resulting purity of the enzyme is >90% based on SDS-PAGE analysis. The enzyme was aliquoted and stored at -80 °C.
Standard HCV NS5B RdRp enzyme assay. HCV RdRp genotype 1b assays were run in a final volume of 60 µl in 96 well plates (Costar 3912). The assay buffer is composed of 20 mM Hepes, pH 7.5, 2.5 mM KCI, 2.5 mM MgCl2, 1 mM DTT, 1.6 U RNAse inhibitor (Promega N2515), 0.1 mg/ml BSA (Promega R3961), and 2 % glycerol. All compounds were serially diluted (3-fold) in DMSO and diluted further in water such that the final concentration of DMSO in the assay was 2%. HCV RdRp genotype Ib enzyme was used at a final concentration of 28 nM. A polyA template was used at.6 nM, and a biotinylated oligo-dT12 primer was used at 180 nM final concentration. Template was obtained commercially (Amersham 27-4110). Biotinylated primer was prepared by Sigma Genosys. 3H-UTP was used at 0.6 µCi (0.29 µM total UTP). Reactions were initiated by the addition of enzyme, incubated at 30 °C for 60 min, and stopped by adding 25 µl of 50 mM EDTA containing SPA beads (4 µg/µl, Amersham RPNQ 0007). Plates were read on a Packard Top Count NXT after > 1hr incubation at room temperature.
Modified HCV NS5B RdRp enzyme assay. A modified enzyme assay was performed essentially as described for the standard enzyme assay except for the following: The biotinylated oligo dT12 primer was precaptured on streptavidin-coated SPA beads by mixing primer and beads in assay buffer and incubating at room temperature for one hour. Unbound primer was removed after centrifugation. The primer-bound beads were resuspended in 20 mM Hepes buffer, pH 7.5 and used in the assay at final concentrations of 20 nM primer and 0.67 µg/µl beads. Order of addition in the assay: enzyme (14 nM) was added to diluted compound followed by the addition of a mixture of template (0.2 nM), 3H-UTP (0.6 µCi, 0.29 µM), and primer-bound beads, to initiate the reaction; concentrations given are final. Reactions were allowed to proceed for 4 hours at 30° C.
IC50 values for compounds were determined using seven different [I]. […]

[1] = Hepatitis C virus, HCV replicon cells, FRET or luciferase activity, read-out: EC50
[2] = HCV NS5B RdRp enzyme, genotype 1b, read-out: IC50

T1 sequence (Q9WMX2 2420-2992): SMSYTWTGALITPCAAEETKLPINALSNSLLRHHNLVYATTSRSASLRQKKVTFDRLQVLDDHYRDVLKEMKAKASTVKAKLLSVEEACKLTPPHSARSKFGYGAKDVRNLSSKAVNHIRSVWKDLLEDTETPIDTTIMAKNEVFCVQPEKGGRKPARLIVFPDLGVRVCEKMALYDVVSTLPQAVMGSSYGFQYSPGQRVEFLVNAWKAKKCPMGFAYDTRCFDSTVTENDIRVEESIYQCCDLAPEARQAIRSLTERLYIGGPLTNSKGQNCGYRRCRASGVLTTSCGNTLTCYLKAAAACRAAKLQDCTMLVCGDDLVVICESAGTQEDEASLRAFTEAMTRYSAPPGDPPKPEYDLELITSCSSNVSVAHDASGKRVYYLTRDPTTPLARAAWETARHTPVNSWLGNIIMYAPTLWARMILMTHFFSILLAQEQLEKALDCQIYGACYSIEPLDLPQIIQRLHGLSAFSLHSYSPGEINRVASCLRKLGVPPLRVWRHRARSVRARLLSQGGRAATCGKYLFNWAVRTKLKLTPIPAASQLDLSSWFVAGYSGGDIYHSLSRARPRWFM

Structure (SMILES)	EC50 (HCV replicon; [1]) [nM]	EC50 (HCV replicon; Hepatitis C virus) [nM]	further results
COc1ccc2c(c1)C=C(c1nn(C(C)C)c(C)c1C(=O)N1C[C@@H](C)O[C@@H](C)C1)Cn1c-2c(C2CCCCC2)c2ccc(C(=O)NS(=O)(=O)C(C)C)cc21 [drawing 151]	1 to 500		
COc1ccc2c(c1)C=C(c1nn(C(C)C)c(C)c1C(=O)N1C[C@@H](C)O[C@@H](C)C1)Cn1c-2c(C2CCCCC2)c2ccc(C(=O)NS(=O)(=O)C(C)C)cc21 [drawing 156]			EC50 (HCV replicon; HCV replicon cells, FRET or luciferase activity, read-out: EC50): 1 to 500 nM
COc1ccc2c(c1)C=C(c1c(C(=O)N3CCOCC3)c(C(C)C)nn1C)Cn1c-2c(C2CCCCC2)c2ccc(C(=O)NS(=O)(=O)C(C)C)cc21	1 to 500		IC50 (HCV NS5B; [2]): 1 to 500 nM
CCn1ncc(C(=O)N2C3CCC2CN(C)C3)c1C1=Cc2cc(OC)ccc2-c2c(C3CCCCC3)c3ccc(C(=O)NS(=O)(=O)C(C)C)cc3n2C1		1 to 500	IC50 (HCV NS5B): 1 to 500 nM
CCn1ncc(C(=O)N2CC3CCC(C2)N3C)c1C1=Cc2cc(OC)ccc2-c2c(C3CCCCC3)c3ccc(C(=O)NS(=O)(=O)C(C)C)cc3n2C1		1 to 500	IC50 (HCV NS5B): 1 to 500 nM
COc1ccc2c(c1)C=C(c1c(C(=O)N3C[C@@H](C)O[C@@H](C)C3)c(C(C)C)nn1C)Cn1c-2c(C2CCCCC2)c2ccc(C(=O)NS(=O)(=O)C(C)C)cc21	1 to 500		IC50 (HCV NS5B; [2]): 1 to 500 nM
COc1ccc2c(c1)C=C(c1c(C(=O)N3C[C@@H](C)O[C@@H](C)C3)nnn1C(C)C)Cn1c-2c(C2CCCCC2)c2ccc(C(=O)NS(=O)(=O)C(C)C)cc21	1 to 500		IC50 (HCV NS5B; [2]): 1 to 500 nM
CCn1nc(C)c(C(=O)N2C[C@@H](C)N(C)[C@@H](C)C2)c1C1=Cc2cc(OC)ccc2-c2c(C3CCCCC3)c3ccc(C(=O)NS(=O)(=O)C(C)C)cc3n2C1	1 to 500		
CCn1nc(C)c(C(=O)N2CC3CCC(C2)N3C)c1C1=Cc2cc(OC)ccc2-c2c(C3CCCCC3)c3ccc(C(=O)NS(=O)(=O)C(C)C)cc3n2C1		1 to 500	
CCn1nc(C)c(C(=O)N2CCO[C@H](COC)C2)c1C1=Cc2cc(OC)ccc2-c2c(C3CCCCC3)c3ccc(C(=O)NS(=O)(=O)C(C)C)cc3n2C1	1 to 500		
CCn1ncc(C(=O)N2CC3CCC(C2)O3)c1C1=Cc2cc(OC)ccc2-c2c(C3CCCCC3)c3ccc(C(=O)NS(=O)(=O)C(C)C)cc3n2C1		1 to 500	
CCn1ncc(C(=O)N2C3CCCC2COC3)c1C1=Cc2cc(OC)ccc2-c2c(C3CCCCC3)c3ccc(C(=O)NS(=O)(=O)C(C)C)cc3n2C1		1 to 500	
COc1ccc2c(c1)C=C(c1c(C(=O)N3CC4CCC(C3)O4)c(C)nn1C(C)C)Cn1c-2c(C2CCCCC2)c2ccc(C(=O)NS(=O)(=O)C(C)C)cc21		1 to 500	
